Data from ChEMBL document CHEMBL1136864, “A one step/one pot synthesis of N,N-bis(phosphonomethyl)amino acids and their effects on adipogenic and osteogenic differentiation of human mesenchymal stem cells” (Bioorg Med Chem, 2009).
The source made the active and inactive calls. The calls are words filed in the database; no cut-off is given here.

Tests used:
[1] = test system: MADS; assay: Induction of osteogenesis in human MADS cells assessed as ALP activity at 0.1 to 100 nM; format: functional, cell-based
[2] = test system: MADS; assay: Effect on adipogenesis in human MADS cells assessed as GPDH activity at 100 nM; format: functional, cell-based
[3] = Toxicity in human MADS cells assessed as inhibition of osteoblast formation at 100 nM after 14 days by Von Kossa staining; format: cell-based; conditions: 336 h, 0.1 µM
[4] = Cytotoxicity against human MADS cells at 100 nM; format: cell-based; conditions: 0.1 µM
[5] = Cytotoxicity against human MADS cells at 300 nM; format: cell-based; conditions: 0.3 µM
[6] = test system: MADS; assay: Effect on adipogenic differentiation of human MADS cells into adipocytes at 300 nM after 14 days by Oil red O staining; format: functional, cell-based
[7] = Inhibition of osteogenesis in human MADS cells assessed as ALP activity at 300 nM; format: cell-based; conditions: 0.3 µM
[8] = Toxicity in human MADS cells assessed as inhibition of osteoblast formation at 300 nM after 14 days by Von Kossa staining; format: cell-based; conditions: 336 h, 0.3 µM
[9] = Cytotoxicity against human MADS cells at 0.1 to 100 nM; format: cell-based; conditions: 0.1 µM
[10] = Inhibition of osteogenesis in human MADS cells assessed as ALP activity at 100 nM; format: cell-based; conditions: 0.1 µM
[11] = test system: MADS; assay: Effect on adipogenic differentiation of human MADS cells into adipocytes at 100 nM after 14 days by Oil red O staining; format: functional, cell-based
[12] = test system: MADS; assay: Effect on adipogenesis in human MADS cells assessed as GPDH activity at 300 nM; format: functional, cell-based

| Structure (SMILES) | Activity [1] | Activity [2] | Activity [3] | Activity [4] | Activity [5] | Activity [6] | Activity [7] | Activity [8] | Activity [9] | Activity [10] | Activity [11] | Activity [12] |
| --- | --- | --- | --- | --- | --- | --- | --- | --- | --- | --- | --- | --- |
| CC(C)(C(=O)O)N(CP(=O)(O)O)CP(=O)(O)O | Active | inactive | Toxic | Non-toxic | Non-toxic | inactive | Active | Toxic | Non-toxic | Active | inactive | inactive |
| NCCCC(O)(P(=O)(O)O)P(=O)(O)O | Active | – | – | – | – | – | – | – | – | – | – | inactive |
| O=C(O)C1(N(CP(=O)(O)O)CP(=O)(O)O)CCCCC1 | Active | inactive | Toxic | Non-toxic | Non-toxic | inactive | Active | Toxic | Non-toxic | Active | inactive | inactive |
| O=C(O)C1(N(CP(=O)(O)O)CP(=O)(O)O)CCCC1 | Active | inactive | Toxic | Non-toxic | Non-toxic | inactive | Active | Toxic | Non-toxic | Active | inactive | inactive |
